Reference: patent publication US9040532B2, “Alpha adrenergic receptor modulators” (Allergan, Inc., priority 2009, dated 2015)

Columns and labels:
Type in all cases: cell-based
[1] = target: T1, Alpha 2B (Homo sapiens, UniProt P18089); assay: FLIPR assay, intracellular Ca2+ mobilization, alpha 2B; conditions: FLIPR; for EC50: agonist, read-out: Alpha 2B Potency (EC50); for Alpha 2B relative efficacy compared to a standard full agonist: value in parentheses
T1 sequence (P18089 1-450): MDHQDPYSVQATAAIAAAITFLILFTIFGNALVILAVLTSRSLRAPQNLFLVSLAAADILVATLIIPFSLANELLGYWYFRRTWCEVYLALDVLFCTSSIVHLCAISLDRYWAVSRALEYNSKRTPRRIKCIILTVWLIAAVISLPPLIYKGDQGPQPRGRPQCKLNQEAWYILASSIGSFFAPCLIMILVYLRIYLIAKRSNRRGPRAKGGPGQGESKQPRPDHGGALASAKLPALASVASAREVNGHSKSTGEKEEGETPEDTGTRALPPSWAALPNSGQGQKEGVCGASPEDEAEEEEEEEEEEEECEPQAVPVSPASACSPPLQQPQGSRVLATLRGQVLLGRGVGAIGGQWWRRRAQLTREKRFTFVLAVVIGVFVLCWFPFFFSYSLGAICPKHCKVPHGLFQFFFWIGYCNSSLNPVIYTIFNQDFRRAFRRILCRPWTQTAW
Method: (§1) Cells are loaded into a plate reader with a Ca^2+ dye indicator and incubated with various compounds. This assay is adequate for monitoring the intracellular Ca^2+ mobilization from fluorescent readings to evaluate receptor agonists.

[2] = target: T2, Alpha 2C (Homo sapiens, UniProt P18825); assay: FLIPR assay, intracellular Ca2+ mobilization, alpha 2C; conditions: for EC50: agonist, read-out: Alpha 2C Potency (EC50); for Alpha 2C relative efficacy compared to a standard full agonist: value in parentheses
T2 sequence (P18825 1-462): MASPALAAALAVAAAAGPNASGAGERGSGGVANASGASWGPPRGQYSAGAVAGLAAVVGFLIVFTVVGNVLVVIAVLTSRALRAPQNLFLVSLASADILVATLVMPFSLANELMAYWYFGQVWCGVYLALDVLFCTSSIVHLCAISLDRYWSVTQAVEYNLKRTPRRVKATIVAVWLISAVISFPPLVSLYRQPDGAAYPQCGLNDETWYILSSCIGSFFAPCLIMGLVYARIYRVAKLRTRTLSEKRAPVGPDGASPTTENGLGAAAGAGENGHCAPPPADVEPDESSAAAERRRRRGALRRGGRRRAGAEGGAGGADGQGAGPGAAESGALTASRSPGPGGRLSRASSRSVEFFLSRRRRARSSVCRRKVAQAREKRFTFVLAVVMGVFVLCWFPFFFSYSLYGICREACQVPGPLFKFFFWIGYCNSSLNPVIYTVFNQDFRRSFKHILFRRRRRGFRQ
Method: as §1

[3] = target: T3, Alpha 2A (Homo sapiens, UniProt P08913); assay: FLIPR assay, intracellular Ca2+ mobilization, alpha 2A; conditions: for EC50: agonist, read-out: Alpha 2A Potency (EC50); for Alpha 2A relative efficacy compared to a standard full agonist: value in parentheses
T3 sequence (P08913 1-465): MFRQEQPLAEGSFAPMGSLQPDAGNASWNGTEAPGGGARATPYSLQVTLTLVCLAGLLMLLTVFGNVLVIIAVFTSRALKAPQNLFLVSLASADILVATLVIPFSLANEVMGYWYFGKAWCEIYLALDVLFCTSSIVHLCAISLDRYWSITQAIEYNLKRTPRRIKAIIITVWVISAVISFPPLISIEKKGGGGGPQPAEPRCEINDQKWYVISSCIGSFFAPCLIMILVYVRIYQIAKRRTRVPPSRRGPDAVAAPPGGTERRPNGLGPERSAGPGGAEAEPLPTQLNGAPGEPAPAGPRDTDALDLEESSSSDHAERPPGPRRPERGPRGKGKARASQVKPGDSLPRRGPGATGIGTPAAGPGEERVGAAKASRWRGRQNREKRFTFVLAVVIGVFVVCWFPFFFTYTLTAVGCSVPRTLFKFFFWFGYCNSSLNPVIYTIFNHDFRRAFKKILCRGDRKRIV
Method: The compounds described herein were tested for alpha adrenergic activity using a Fluorometric Imaging plate Reader (FLIPR) assay (Princen et al., 2003, Cytometry Part A. 51, pp. 35-45). Cells are loaded into a plate reader with a Ca^2+ dye indicator and incubated with various compounds. This assay is adequate for monitoring the intracellular Ca^2+ mobilization from fluorescent readings to evaluate receptor agonists. […] The compounds described herein activate alpha adrenergic receptors.

EC50 [1] [nM] | Alpha 2B relative efficacy compared to a standard full agonist [1] | EC50 [2] [nM] | Alpha 2C relative efficacy compared to a standard full agonist [2] | EC50 [3] [nM] | Alpha 2A relative efficacy compared to a standard full agonist [3] | SMILES
618 | (0.44) | 560 | (0.87) | – | – | Fc1cccc2c1C(NC1=NCCC1)CC2 (centres unmarked) [Compound 35, N-(7-Fluoro-2,3-dihydro-1H-inden-1-yl)-3,4-dihydro-2H-pyrrol-5-amine]
117 | (.76) | 25 | (.92) | 96 | (.98) | Brc1c(NC2=NCCC2)ccc2scnc12 [Compound 31, 4-Bromo-N-(3,4-dihydro-2H-pyrrol-5-yl)-1,3-benzothiazol-5-amine]
79 | (0.61) | 12 | (0.95) | – | – | Brc1cc(NC2=NCCC2)cc2cc[nH]c12 [Compound 20, 7-Bromo-N-(3,4-dihydro-2H-pyrrol-5-yl)-1H-indol-5-amine]
– | – | 104 | (0.96) | – | – | c1cnc2cc(NC3=NCCC3)ccc2c1 [Compound 28, N-(3,4-Dihydro-2H-pyrrol-5-yl)quinolin-7-amine]
1840 | (0.35) | 435 | (0.98) | – | – | Clc1cc(NC2=NCCC2)cc2nc[nH]c12 [Compound 13, 7-Chloro-N-(3,4-dihydro-2H-pyrrol-5-yl)-1H-benzimidazol-5-amine]
579 | (0.77) | 327 | (0.87) | 583 | (0.68) | Cc1c(NC2=NCCC2)ccc2c1NCCO2 [Compound 36, N-(3,4-Dihydro-2H-pyrrol-5-yl)-5-methyl-3,4-dihydro-2H-1,4-benzoxazin-6-amine]
– | – | 2970 | (0.71) | – | – | c1cnc2c(NC3=NCCC3)cccc2c1 [Compound 30, N-(3,4-dihydro-2H-pyrrol-5-yl)quinolin-8-amine]
17 | (0.96) | 6 | (0.97) | 118 | (0.85) | c1cc2cc(/N=C3\CCCN3)cnc2[nH]1 [Compound 26, N-[(2E)-Pyrrolidin-2-ylidene]-1H-pyrrolo[2,3-b]pyridin-5-amine]
– | – | 630 | (0.51) | – | – | c1cc2cc(NC3=NCCC3)ccc2o1 [Compound 24, N-1-Benzofuran-5-yl-3,4-dihydro-2H-pyrrol-5-amine]
– | – | 123 | (0.85) | – | – | c1cc2c(c(NC3=NCCC3)c1)CCC2 [Compound 16, N-(2,3-Dihydro-1H-inden-4-yl)-3,4-dihydro-2H-pyrrol-5-amine]
39 | (0.18) | 69 | (0.9) | – | – | Cc1c(NC2=NCCC2)ccc2[nH]ccc12 [Compound 18, N-(3,4-Dihydro-2H-pyrrol-5-yl)-4-methyl-1H-indol-5-amine]
– | – | 281 | (0.68) | – | – | c1ccc2c(c1)CC[C@@H]2NC1=NCCC1 [Compound 33, N-[(1S)-2,3-Dihydro-1H-inden-1-yl]-3,4-dihydro-2H-pyrrol-5-amine]
– | – | 643 | (0.95) | – | – | c1cc(NC2=NCCC2)c2cnccc2c1 [Compound 32, N-(3,4-Dihydro-2H-pyrrol-5-yl)isoquinolin-8-amine]
10 | (0.15) | 9 | (0.9) | – | – | c1cc2cc(NC3=NCCC3)ccc2[nH]1 [Compound 17, N-(3,4-Dihydro-2H-pyrrol-5-yl)-1H-indol-5-amine]
– | – | 2600 | (0.59) | – | – | Clc1c(/N=C2\CCCN2)cnc2cccnc12 [Compound 6, 4-Chloro-N-[(2E)-pyrrolidin-2-ylidene]-1,5-naphthyridin-3-amine]
1070 | (0.33) | 672 | (0.84) | – | – | Clc1ccc(NC2=NCCC2)c2ccccc12 [Compound 7, N-(4-Chloro-1-naphthyl)-3,4-dihydro-2H-pyrrol-5-amine]
163 | (0.43) | 221 | (0.8) | – | – | c1ccc2c(c1)CCC[C@@H]2NC1=NCCC1 [Compound 34, N-[(1S)-1,2,3,4-Tetrahydronaphthalen-1-yl]-3,4-dihydro-2H-pyrrol-5-amine]
– | – | 89 | (0.66) | – | – | c1cc2cc(NC3=NCCC3)ccc2s1 [Compound 23, N-1-Benzothien-5-yl-3,4-dihydro-2H-pyrrol-5-amine]
– | – | 280 | (0.75) | – | – | c1cc2ccc(NC3=NCCC3)cc2[nH]1 [Compound 21, N-(3,4-Dihydro-2H-pyrrol-5-yl)-1H-indol-6-amine]
– | – | 22 | (0.9) | 555 | (0.79) | Cc1c(/N=C2\CCCN2)cnc2[nH]ccc12 [Compound 38, 4-Methyl-N-[(2E)-pyrrolidin-2-ylidene]-1H-pyrrolo[2,3-b]pyridin-5-amine]
700 | (0.15) | 833 | (0.85) | – | – | Brc1ccc(NC2=NCCC2)c2ccccc12 [Compound 3, N-(4-Bromo-1-naphthyl)-3,4-dihydro-2H-pyrrol-5-amine]
714 | (0.19) | 142 | (1.06) | – | – | c1nc2cc(NC3=NCCC3)ccc2[nH]1 [Compound 4, N-(3,4-Dihydro-2H-pyrrol-5-yl)-1H-benzimidazol-5-amine]
142 | (0.29) | 12 | (0.85) | – | – | Cc1cc(NC2=NCCC2)cc2cc[nH]c12 [Compound 19, N-(3,4-Dihydro-2H-pyrrol-5-yl)-7-methyl-1H-indol-5-amine]
– | – | 1280 | (0.86) | – | – | c1nc2c(cc1NC1=NCCC1)CCC2 [Compound 5, N-(3,4-Dihydro-2H-pyrrol-5-yl)-6,7-dihydro-5H-cyclopenta[b]pyridin-3-amine]
– | – | 2740 | (0.66) | – | – | c1cnc2cc(NC3=NCCC3)ccc2n1 [Compound 14, N-(3,4-Dihydro-2H-pyrrol-5-yl)quinoxalin-6-amine]
– | – | 2160 | (0.61) | – | – | c1cc(NC2=NCCC2)c2[nH]ccc2c1 [Compound 22, N-(3,4-Dihydro-2H-pyrrol-5-yl)-1H-indol-7-amine]
